The text below walks through data of PubChem BioAssay (NCI).

Structures are written as SMILES. Several values for one entry are separate records, joined by “and”; a condition that tells them apart may be missing. Equal entries are not always repeated.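 Exposure lasted 48 hours, with cells grown in 96-well plates and compounds tested at five concentrations. Here, GI50 denotes the concentration required for 50% inhibition of growth. The concentration for full growth arrest is given as TGI.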 Where only a bound is given, the exact number is not on record here.

Among the test systems are K-562 leukemia; MDA-MB-435; OVCAR-8 ovarian; IGROV1 ovarian; UO-31 renal; MALME-3M melanoma; UACC-62 melanoma; MDA-MB-231 breast; SK-MEL-2 melanoma; OVCAR-3 ovarian.
What all share (assay): DTP human tumour cell line panel, 48 h

For `O=C1Nc2ccc(I)cc2/C1=C/c1cc(Br)c(O)c(Br)c1`, the GI50 with K-562 leukemia was over 51.9 µM; with MDA-MB-435, 15 µM and 13.2 µM; in the assay on OVCAR-8 ovarian, > 25 µM and 23.8 µM; with IGROV1 ovarian, > 25 µM and 27.8 µM; with UO-31 renal, > 16.4 µM and 18.1 µM; in the assay with MALME-3M melanoma, 5.9 µM and 4.62 µM. For the same molecule, the GI50 in the assay with UACC-62 melanoma is 11.5 µM and 8.43 µM; in the assay on MDA-MB-231 breast it was > 20.4 µM and 16.1 µM; in the assay with SK-MEL-2 melanoma, 19.6 µM and 14.7 µM; with OVCAR-3 ovarian, > 12.5 µM and 16.7 µM. Moreover, the TGI was over 100 µM in the assay on K-562 leukemia; over 100 µM with MDA-MB-435; over 96.5 µM with OVCAR-8 ovarian; over 75.5 µM in the assay on IGROV1 ovarian; > 25 µM and 58.9 µM in the assay on UO-31 renal; 22.2 µM and > 64.5 µM with MALME-3M melanoma. Besides, the TGI is > 25 µM and 29.6 µM in the assay on UACC-62 melanoma; > 25 µM and 44.2 µM in the assay on MDA-MB-231 breast; > 25 µM and 37.5 µM with SK-MEL-2 melanoma; > 20.6 µM and 36.9 µM with OVCAR-3 ovarian.
On to `CCCN1CCCC(c2ccc(Nc3nc(Nc4cc(F)ccc4C(N)=O)c4cc[nH]c4n3)c(OC)c2)C1` (configuration not stated), for which the GI50 in the assay on K-562 leukemia is 0.825 µM; with MDA-MB-435, 1.04 µM; in the assay with OVCAR-8 ovarian, 2.47 µM; with IGROV1 ovarian, 1.47 µM; in the assay with UO-31 renal it was 1.27 µM; in the assay on MALME-3M melanoma, 2.69 µM. Moreover, the GI50 was 3.11 µM in the assay on UACC-62 melanoma, 3.28 µM in the assay with MDA-MB-231 breast, 1.42 µM in the assay with SK-MEL-2 melanoma and 2.92 µM with OVCAR-3 ovarian. In addition, the TGI stood at 5.59 µM with K-562 leukemia; 5.39 µM in the assay on MDA-MB-435; 5.92 µM with OVCAR-8 ovarian; 6.12 µM in the assay with IGROV1 ovarian; 5.88 µM with UO-31 renal; 6.34 µM in the assay on MALME-3M melanoma. Moreover, the concentration for total growth inhibition (TGI) with UACC-62 melanoma came to 6.31 µM; in the assay on MDA-MB-231 breast, 7.7 µM; in the assay on SK-MEL-2 melanoma, 5.26 µM; in the assay with OVCAR-3 ovarian it was 6 µM.
Turning to `O=c1[nH]c2c(ccc3cnccc32)c2c1CCC2`, the GI50 in the assay on K-562 leukemia was 0.657 µM; in the assay on MDA-MB-435, 0.307 µM; in the assay on OVCAR-8 ovarian, 0.331 µM; in the assay on IGROV1 ovarian, 0.258 µM; with UO-31 renal it was 0.243 µM; with MALME-3M melanoma it was 0.312 µM. Also, the GI50 in the assay with UACC-62 melanoma is 0.214 µM; in the assay on MDA-MB-231 breast, 0.361 µM; with SK-MEL-2 melanoma, 0.221 µM; with OVCAR-3 ovarian, 0.277 µM. Besides, the concentration for total growth inhibition (TGI) was over 100 µM with K-562 leukemia; 1.38 µM with MDA-MB-435; over 100 µM in the assay with OVCAR-8 ovarian; 0.923 µM in the assay on IGROV1 ovarian; 0.67 µM in the assay on UO-31 renal; 0.951 µM with MALME-3M melanoma. The TGI in the assay on UACC-62 melanoma is 0.622 µM; in the assay with MDA-MB-231 breast, over 100 µM; in the assay on SK-MEL-2 melanoma it was 0.673 µM; in the assay with OVCAR-3 ovarian, 11.7 µM.
For the molecule `CN1CC[C@H](N(C)C(=O)N2CC(c3cc(F)ccc3F)=C[C@@]2(CO)c2ccccc2)[C@H](F)C1`, the concentration for 50% growth inhibition (GI50) was 0.00744 µM in the assay on K-562 leukemia; 0.00258 µM with MDA-MB-435; 0.058 µM in the assay with OVCAR-8 ovarian; 7.74 µM in the assay with UO-31 renal; 0.0386 µM in the assay with UACC-62 melanoma; 0.0112 µM in the assay with MDA-MB-231 breast. Further, the results for the GI50 with SK-MEL-2 melanoma and in the assay on OVCAR-3 ovarian were 0.0282 µM and 0.0196 µM, respectively. Besides, the concentration for total growth inhibition (TGI) is over 100 µM in the assay with K-562 leukemia; 0.00772 µM with MDA-MB-435; over 100 µM in the assay with OVCAR-8 ovarian; over 100 µM with IGROV1 ovarian; over 100 µM in the assay on UO-31 renal; 27.9 µM in the assay with MALME-3M melanoma. Moreover, the figures for the TGI in the assay with UACC-62 melanoma, in the assay with MDA-MB-231 breast and in the assay with SK-MEL-2 melanoma were 25 µM, 15.3 µM and 79.4 µM, respectively.
As for `CCN(CC)CCN1C(=O)c2cccc3cc(N)cc(c23)C1=O`, the TGI is 44.2 µM with K-562 leukemia; 22.2 µM in the assay on MDA-MB-435; over 100 µM in the assay on OVCAR-8 ovarian; over 100 µM with IGROV1 ovarian; 66.8 µM in the assay on UO-31 renal; 26.1 µM in the assay with MALME-3M melanoma. For the same molecule, the concentration for total growth inhibition (TGI) was 24.6 µM in the assay on UACC-62 melanoma, 51.9 µM with MDA-MB-231 breast, 37.6 µM with SK-MEL-2 melanoma and 44.3 µM in the assay on OVCAR-3 ovarian.
On to `C/C=C/C(C/C=C(\C)CO[Si](C)(C)C(C)(C)C)O[Si](C)(C)C(C)(C)C` (configuration not stated), for which the TGI with K-562 leukemia, in the assay on MDA-MB-435, in the assay with OVCAR-8 ovarian, with IGROV1 ovarian, in the assay on UO-31 renal and with MALME-3M melanoma was over 100 µM throughout. For the same molecule, the TGI in the assay with UACC-62 melanoma, with MDA-MB-231 breast, in the assay on SK-MEL-2 melanoma and in the assay on OVCAR-3 ovarian was over 100 µM each time.
Take `Nc1c2ccccc2nc2ccccc12`: the GI50 with K-562 leukemia is 3.16 µM and 3.06 µM; in the assay with MDA-MB-435 it was 2.23 µM and 3.46 µM; in the assay on OVCAR-8 ovarian it was 0.626 µM and 3.53 µM; in the assay on IGROV1 ovarian, 2.12 µM and 3.34 µM; in the assay with UO-31 renal it was 1.25 µM and 1.6 µM; in the assay on MALME-3M melanoma, 1.86 µM and 3.69 µM. Moreover, the GI50 with UACC-62 melanoma is 1.51 µM and 2.42 µM; in the assay on MDA-MB-231 breast, 1.99 µM and 2.51 µM; in the assay with SK-MEL-2 melanoma it was 1.74 µM and 3.87 µM; in the assay on OVCAR-3 ovarian it was 2.2 µM and 2.91 µM. Further, the TGI with K-562 leukemia is 12.5 µM and 25.1 µM; in the assay with MDA-MB-435, 6.32 µM and 13.7 µM; in the assay with OVCAR-8 ovarian, 5.14 µM and 34.3 µM; with IGROV1 ovarian, 6.18 µM and 14 µM; with UO-31 renal, 2.75 µM and 7.34 µM; in the assay on MALME-3M melanoma, 3.66 µM and 9.62 µM. The TGI in the assay on UACC-62 melanoma was 3.45 µM and 6.88 µM; with MDA-MB-231 breast, 6.09 µM and 8.37 µM; in the assay with SK-MEL-2 melanoma, 3.41 µM and 11.4 µM; in the assay with OVCAR-3 ovarian it was 6.77 µM and 8.91 µM.
For `O=C(c1ccco1)c1c(C(F)(F)F)n([O-])c2cc(Cl)c(Cl)cc2[n+]1=O`, the GI50 in the assay on K-562 leukemia is 0.173 µM; with MDA-MB-435 it was 0.877 µM; in the assay with OVCAR-8 ovarian, 1.03 µM; in the assay with IGROV1 ovarian, 0.113 µM; in the assay with UO-31 renal, 0.0465 µM; with MALME-3M melanoma, 0.824 µM. Besides, the GI50 with UACC-62 melanoma was 0.705 µM; in the assay with MDA-MB-231 breast it was 0.843 µM; in the assay with SK-MEL-2 melanoma it was 3.07 µM; in the assay with OVCAR-3 ovarian it was 0.0798 µM. The TGI worked out at 2.87 µM in the assay on K-562 leukemia; 1.81 µM in the assay on MDA-MB-435; 6.6 µM in the assay with OVCAR-8 ovarian; 2.53 µM in the assay on IGROV1 ovarian; 0.211 µM in the assay with UO-31 renal; 1.81 µM with MALME-3M melanoma. The TGI in the assay on UACC-62 melanoma was determined as 1.49 µM; in the assay with MDA-MB-231 breast it was 1.77 µM; in the assay on SK-MEL-2 melanoma, 8.89 µM; with OVCAR-3 ovarian, 0.316 µM.

As a reminder, the GI50 is the concentration at which growth is held to half of that of the control. One may read the TGI as the concentration at which net growth stops.
